Source: patent publication US11572590B2, “Methods for evaluating tumor cell spheroids using 3D microfluidic cell culture device” (Dana-Farber Cancer Institute, Inc., priority 2017, dated 2023)
Read-outs that look alike come from different tables or passages of the source.

What was measured:
Assay in all cases: SelectScreen Kinase Profiling, single point inhibition and IC50 for off-target kinases
Assay type in all cases: biochemical
off-target kinases [1] = biological target: off-target kinases (Homo sapiens, UniProt P00533); conditions: EGFR (ErbB1), ZLYTE, ATP Km app
Sequence of off-target kinases (Homo sapiens, UniProt P00533) (P00533 25-1210): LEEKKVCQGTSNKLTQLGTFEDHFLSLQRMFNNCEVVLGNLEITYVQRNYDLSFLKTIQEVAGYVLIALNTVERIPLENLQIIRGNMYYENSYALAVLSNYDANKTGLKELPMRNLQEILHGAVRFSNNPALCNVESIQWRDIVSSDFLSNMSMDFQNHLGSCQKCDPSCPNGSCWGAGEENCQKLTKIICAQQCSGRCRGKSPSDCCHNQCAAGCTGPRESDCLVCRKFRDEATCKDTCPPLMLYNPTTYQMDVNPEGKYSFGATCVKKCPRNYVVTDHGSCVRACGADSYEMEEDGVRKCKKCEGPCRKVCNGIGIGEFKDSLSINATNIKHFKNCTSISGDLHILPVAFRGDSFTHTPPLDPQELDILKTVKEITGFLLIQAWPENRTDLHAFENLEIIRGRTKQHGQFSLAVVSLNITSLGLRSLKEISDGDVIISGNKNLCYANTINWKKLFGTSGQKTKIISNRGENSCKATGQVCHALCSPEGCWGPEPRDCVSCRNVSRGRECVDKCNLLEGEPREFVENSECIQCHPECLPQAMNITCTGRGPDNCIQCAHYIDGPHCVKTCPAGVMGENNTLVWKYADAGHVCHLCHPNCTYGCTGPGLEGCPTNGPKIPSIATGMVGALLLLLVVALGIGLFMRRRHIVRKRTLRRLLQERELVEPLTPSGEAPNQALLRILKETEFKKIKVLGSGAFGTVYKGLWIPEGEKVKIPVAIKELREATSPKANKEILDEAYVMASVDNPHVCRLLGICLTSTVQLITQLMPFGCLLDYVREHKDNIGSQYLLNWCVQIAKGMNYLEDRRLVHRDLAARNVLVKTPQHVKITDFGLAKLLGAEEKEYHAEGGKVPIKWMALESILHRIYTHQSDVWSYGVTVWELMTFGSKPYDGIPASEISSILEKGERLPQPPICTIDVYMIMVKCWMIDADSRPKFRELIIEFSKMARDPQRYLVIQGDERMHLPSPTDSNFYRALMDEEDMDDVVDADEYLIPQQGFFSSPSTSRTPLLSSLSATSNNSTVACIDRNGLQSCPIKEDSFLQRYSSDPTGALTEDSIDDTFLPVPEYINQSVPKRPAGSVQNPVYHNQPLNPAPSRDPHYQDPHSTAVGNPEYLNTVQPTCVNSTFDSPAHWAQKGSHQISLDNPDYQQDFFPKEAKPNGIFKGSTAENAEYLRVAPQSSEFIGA

off-target kinases [2] = biological target: off-target kinases (Homo sapiens, UniProt P11362); conditions: FGFR1, ZLYTE, ATP Km app
Sequence of off-target kinases (Homo sapiens, UniProt P11362) (P11362 22-822): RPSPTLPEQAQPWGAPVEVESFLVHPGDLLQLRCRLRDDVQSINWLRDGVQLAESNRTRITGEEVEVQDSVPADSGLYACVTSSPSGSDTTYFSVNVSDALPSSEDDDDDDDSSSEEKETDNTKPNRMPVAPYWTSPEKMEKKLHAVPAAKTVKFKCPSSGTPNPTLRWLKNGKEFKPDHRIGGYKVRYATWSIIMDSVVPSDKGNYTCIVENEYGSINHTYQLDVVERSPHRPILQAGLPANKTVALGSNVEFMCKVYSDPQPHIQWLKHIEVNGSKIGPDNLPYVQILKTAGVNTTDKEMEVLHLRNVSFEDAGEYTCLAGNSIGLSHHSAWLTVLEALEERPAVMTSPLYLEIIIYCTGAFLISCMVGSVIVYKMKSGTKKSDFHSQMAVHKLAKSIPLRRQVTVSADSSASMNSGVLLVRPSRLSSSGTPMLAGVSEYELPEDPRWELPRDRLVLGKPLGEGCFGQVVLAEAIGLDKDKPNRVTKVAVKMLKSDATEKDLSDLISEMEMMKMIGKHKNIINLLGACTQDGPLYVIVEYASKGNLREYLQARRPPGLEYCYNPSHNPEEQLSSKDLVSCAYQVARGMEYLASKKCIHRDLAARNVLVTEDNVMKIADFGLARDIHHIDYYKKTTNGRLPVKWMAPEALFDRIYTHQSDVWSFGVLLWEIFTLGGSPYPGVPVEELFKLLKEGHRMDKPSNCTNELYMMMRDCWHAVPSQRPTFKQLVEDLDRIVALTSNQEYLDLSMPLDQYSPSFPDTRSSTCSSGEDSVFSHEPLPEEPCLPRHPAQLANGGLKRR

off-target kinases [3] = biological target: off-target kinases (Homo sapiens, UniProt P29317); conditions: EPHA2, ZLYTE, ATP Km app
Sequence of off-target kinases (Homo sapiens, UniProt P29317) (P29317 24-976): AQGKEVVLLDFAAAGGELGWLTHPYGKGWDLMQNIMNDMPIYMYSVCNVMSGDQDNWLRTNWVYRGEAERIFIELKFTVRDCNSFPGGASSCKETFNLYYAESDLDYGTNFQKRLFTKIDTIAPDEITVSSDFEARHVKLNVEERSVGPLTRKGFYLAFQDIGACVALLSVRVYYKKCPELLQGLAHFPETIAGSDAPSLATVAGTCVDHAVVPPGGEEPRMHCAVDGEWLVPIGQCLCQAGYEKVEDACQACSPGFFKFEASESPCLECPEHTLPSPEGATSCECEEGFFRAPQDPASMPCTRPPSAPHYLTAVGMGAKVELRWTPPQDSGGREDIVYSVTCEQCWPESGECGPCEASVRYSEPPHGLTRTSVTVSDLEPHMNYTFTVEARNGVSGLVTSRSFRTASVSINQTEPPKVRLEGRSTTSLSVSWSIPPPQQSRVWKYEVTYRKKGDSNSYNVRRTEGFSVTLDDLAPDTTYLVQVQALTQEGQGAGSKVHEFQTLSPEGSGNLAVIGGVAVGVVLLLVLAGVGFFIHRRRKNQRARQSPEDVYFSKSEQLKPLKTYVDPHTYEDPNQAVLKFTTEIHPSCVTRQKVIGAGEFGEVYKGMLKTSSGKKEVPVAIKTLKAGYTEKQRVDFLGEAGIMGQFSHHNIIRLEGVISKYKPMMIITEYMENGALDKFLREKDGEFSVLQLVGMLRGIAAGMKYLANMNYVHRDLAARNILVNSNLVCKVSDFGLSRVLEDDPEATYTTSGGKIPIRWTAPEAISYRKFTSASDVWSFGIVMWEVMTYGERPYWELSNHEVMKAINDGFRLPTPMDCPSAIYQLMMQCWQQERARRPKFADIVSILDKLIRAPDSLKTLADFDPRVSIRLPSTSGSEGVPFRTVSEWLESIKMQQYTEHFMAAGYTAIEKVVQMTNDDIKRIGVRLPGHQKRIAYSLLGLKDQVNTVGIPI

off-target kinases [4] = biological target: off-target kinases (Homo sapiens, UniProt P45983); conditions: MAPK8 (JNK1)
Sequence of off-target kinases (Homo sapiens, UniProt P45983) (P45983 whole entry): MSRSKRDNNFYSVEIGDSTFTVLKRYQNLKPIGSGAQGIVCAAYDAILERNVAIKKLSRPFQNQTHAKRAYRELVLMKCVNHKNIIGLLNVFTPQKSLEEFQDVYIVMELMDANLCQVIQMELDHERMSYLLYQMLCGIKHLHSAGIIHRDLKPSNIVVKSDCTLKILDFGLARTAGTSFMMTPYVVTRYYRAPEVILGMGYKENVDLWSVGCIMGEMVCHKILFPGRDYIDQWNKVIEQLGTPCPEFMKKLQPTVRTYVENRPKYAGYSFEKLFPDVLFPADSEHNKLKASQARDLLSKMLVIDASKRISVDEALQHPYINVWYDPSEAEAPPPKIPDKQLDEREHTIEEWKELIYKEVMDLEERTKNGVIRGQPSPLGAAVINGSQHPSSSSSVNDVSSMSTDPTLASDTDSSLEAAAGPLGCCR

off-target kinases [5] = biological target: off-target kinases (Homo sapiens, UniProt P48730); conditions: CSNK1D (CK1 delta), ZLYTE, ATP Km app
Sequence of off-target kinases (Homo sapiens, UniProt P48730) (P48730 whole entry): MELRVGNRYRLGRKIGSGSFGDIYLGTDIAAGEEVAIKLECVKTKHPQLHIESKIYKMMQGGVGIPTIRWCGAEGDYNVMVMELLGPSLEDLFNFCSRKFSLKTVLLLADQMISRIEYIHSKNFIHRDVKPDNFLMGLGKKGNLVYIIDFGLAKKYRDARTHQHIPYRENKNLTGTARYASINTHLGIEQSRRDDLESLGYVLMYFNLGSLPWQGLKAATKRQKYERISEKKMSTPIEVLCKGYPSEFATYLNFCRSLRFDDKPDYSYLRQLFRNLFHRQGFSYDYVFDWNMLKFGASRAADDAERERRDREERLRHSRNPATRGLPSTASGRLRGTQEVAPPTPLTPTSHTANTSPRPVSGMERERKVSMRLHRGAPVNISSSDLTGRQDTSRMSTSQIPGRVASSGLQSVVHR

off-target kinases [6] = biological target: off-target kinases (Homo sapiens, UniProt Q16539); conditions: ZLYTE
off-target kinases [7] = biological target: off-target kinases (Homo sapiens, UniProt Q96S53); conditions: TESK2, LanthaScreen Binding
Sequence of off-target kinases (Homo sapiens, UniProt Q96S53) (Q96S53 whole entry): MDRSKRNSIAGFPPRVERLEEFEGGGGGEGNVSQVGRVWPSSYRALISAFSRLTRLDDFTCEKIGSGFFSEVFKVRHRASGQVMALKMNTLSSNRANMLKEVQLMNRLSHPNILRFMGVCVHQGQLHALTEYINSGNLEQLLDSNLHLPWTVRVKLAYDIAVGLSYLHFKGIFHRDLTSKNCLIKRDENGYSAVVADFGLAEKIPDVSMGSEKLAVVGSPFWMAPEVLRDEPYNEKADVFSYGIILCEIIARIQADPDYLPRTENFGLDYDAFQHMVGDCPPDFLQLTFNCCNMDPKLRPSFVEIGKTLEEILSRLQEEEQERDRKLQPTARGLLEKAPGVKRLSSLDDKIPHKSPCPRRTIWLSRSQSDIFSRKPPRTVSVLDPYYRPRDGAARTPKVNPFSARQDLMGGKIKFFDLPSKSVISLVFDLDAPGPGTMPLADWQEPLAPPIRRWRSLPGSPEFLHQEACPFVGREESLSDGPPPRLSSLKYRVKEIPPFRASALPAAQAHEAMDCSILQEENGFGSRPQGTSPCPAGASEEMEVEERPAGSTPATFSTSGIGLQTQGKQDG

off-target kinases [8] = biological target: off-target kinases (Homo sapiens, UniProt Q96SB4); conditions: SRPK1, ZLYTE, ATP Km app
Sequence of off-target kinases (Homo sapiens, UniProt Q96SB4) (Q96SB4 whole entry): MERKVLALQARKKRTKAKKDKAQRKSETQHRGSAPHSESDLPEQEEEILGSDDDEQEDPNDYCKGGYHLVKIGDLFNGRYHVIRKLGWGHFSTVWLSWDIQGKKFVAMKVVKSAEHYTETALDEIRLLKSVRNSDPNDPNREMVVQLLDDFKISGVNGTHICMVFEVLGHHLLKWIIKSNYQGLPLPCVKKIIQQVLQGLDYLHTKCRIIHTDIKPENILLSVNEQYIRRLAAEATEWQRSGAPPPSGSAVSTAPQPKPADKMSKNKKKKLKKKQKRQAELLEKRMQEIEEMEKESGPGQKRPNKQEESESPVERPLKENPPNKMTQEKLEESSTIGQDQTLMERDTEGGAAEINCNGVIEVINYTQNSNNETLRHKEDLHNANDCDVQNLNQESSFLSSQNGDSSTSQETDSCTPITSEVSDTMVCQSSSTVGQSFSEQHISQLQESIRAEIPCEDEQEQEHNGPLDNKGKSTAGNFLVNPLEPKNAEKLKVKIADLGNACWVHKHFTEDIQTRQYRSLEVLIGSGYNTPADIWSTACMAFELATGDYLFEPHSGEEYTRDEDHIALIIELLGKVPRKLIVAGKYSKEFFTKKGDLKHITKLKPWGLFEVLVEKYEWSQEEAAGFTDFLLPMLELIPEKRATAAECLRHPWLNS

off-target kinases [9] = biological target: off-target kinases (Homo sapiens, UniProt Q9NYY3); conditions: PLK2, ATP Km app, ZLYTE
off-target kinases [10] = biological target: off-target kinases (Homo sapiens, UniProt Q9UK32); conditions: RPS6KA6 (RSK4), ZLYTE, ATP Km app

## N#Cc1cc(-c2ncnc(Nc3ccc(N4CCN(C5COC5)CC4)cc3)n2)ccc1OC1CCOCC1 [Compound 1, 5-(4-((4-(4-(oxetan-3-yl)piperazin-1-yl)phenyl)amino)-1,3,5-triazin-2-yl)-2-((tetrahydro-2H-pyran-4-yl)oxy)benzonitrile]
off-target kinases [1]; read-out: % Inhibition 1
  inhibition: 10%
off-target kinases [1]; read-out: % Inhibition 2
  inhibition: 9%
off-target kinases [1]; read-out: % Inhibition Avg
  inhibition: 9%
off-target kinases [2]; read-out: % Inhibition 1
  inhibition: -5%
off-target kinases [2]; read-out: % Inhibition 2
  inhibition: -2%
off-target kinases [2]; read-out: % Inhibition Avg
  inhibition: -3%
off-target kinases [3]; read-out: % Inhibition 1
  inhibition: 1%
off-target kinases [3]; read-out: % Inhibition 2
  inhibition: 12%
off-target kinases [3]; read-out: % Inhibition Avg
  inhibition: 6%
off-target kinases [4]; LanthaScreen Binding, read-out: % Inhibition 1
  inhibition: 57%
off-target kinases [4]; LanthaScreen Binding, read-out: % Inhibition 2
  inhibition: 56%
off-target kinases [4]; LanthaScreen Binding, read-out: % Inhibition Avg
  inhibition: 57%
off-target kinases [4]; ZLYTE, ATP 100, read-out: % Inhibition 1
  inhibition: 33%
off-target kinases [4]; ZLYTE, ATP 100, read-out: % Inhibition 2
  inhibition: 18%
off-target kinases [4]; ZLYTE, ATP 100, read-out: % Inhibition Avg
  inhibition: 25%
off-target kinases [5]; read-out: % Inhibition 1
  inhibition: -1%
off-target kinases [5]; read-out: % Inhibition 2
  inhibition: -5%
off-target kinases [5]; read-out: % Inhibition Avg
  inhibition: -3%
off-target kinases [6]; MAPK14 (p38 alpha) Direct, ATP Km app, read-out: % Inhibition 1
  inhibition: 2%
off-target kinases [6]; MAPK14 (p38 alpha) Direct, ATP Km app, read-out: % Inhibition 2
  inhibition: 1%
off-target kinases [6]; MAPK14 (p38 alpha) Direct, ATP Km app, read-out: % Inhibition Avg
  inhibition: 1%
off-target kinases [6]; MAPK14 (p38 alpha), ATP 100, read-out: % Inhibition 1
  inhibition: -1%
off-target kinases [6]; MAPK14 (p38 alpha), ATP 100, read-out: % Inhibition 2
  inhibition: 9%
off-target kinases [6]; MAPK14 (p38 alpha), ATP 100, read-out: % Inhibition Avg
  inhibition: 4%
off-target kinases [7]; read-out: % Inhibition 1
  inhibition: 14%
off-target kinases [7]; read-out: % Inhibition 2
  inhibition: -3%
off-target kinases [7]; read-out: % Inhibition Avg
  inhibition: 6%
off-target kinases [8]; read-out: % Inhibition 1
  inhibition: -1%
off-target kinases [8]; read-out: % Inhibition 2
  inhibition: -2%
off-target kinases [8]; read-out: % Inhibition Avg
  inhibition: -2%
off-target kinases [9]; read-out: % Inhibition 1
  inhibition: 60%
off-target kinases [9]; read-out: % Inhibition 2
  inhibition: 64%
off-target kinases [9]; read-out: % Inhibition Avg
  inhibition: 62%
off-target kinases [10]; read-out: % Inhibition 1
  inhibition: 14%
off-target kinases [10]; read-out: % Inhibition 2
  inhibition: 17%
off-target kinases [10]; read-out: % Inhibition Avg
  inhibition: 16%
